According to patent US20250059179A1, “Heterocyclic Compounds and Methods of Use” (AMGEN INC., priority 2021, published 2025):

Tests used:
[1] = molecular target: His-tagged KRAS G12D protein (Homo sapiens, UniProt P01116, G12D); experiment: KRAS G12D TR-FRET Assay; format: binding; conditions: biotinylated KRPep-2d substrate, 10 μM GDP;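 note: europium anti-His antibody paired with streptavidin-d2 as FRET partners, initial 30 min incubation, then peptide 1 h and detection reagents 1 h, all at room temperature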
[2] = molecular target: GDP-bound KRAS protein (aa 1-169), containing both G12D and C118A amino acid substitutions (Homo sapiens, UniProt P01116, C118A/G12D); experiment: KRAS G12D Coupled Nucleotide Exchange Assay; format: biochemical; conditions: 2 h compound pre-incubation; SOS-mediated nucleotide exchange, cRAF AlphaScreen readout;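 note: IC50 obtained by fitting the AlphaScreen signal with a four-parameter logistic curve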
Chain of GDP-bound KRAS protein (aa 1-169), containing both G12D and C118A amino acid substitutions (P01116 1-169 isoform P01116-2 G12D/C118A): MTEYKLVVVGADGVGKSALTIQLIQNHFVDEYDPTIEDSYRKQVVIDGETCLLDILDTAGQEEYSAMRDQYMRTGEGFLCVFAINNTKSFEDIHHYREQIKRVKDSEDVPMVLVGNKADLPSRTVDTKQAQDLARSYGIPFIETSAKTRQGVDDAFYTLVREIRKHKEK

Chain of His-tagged KRAS G12D protein (P01116 1-188 isoform P01116-2 G12D): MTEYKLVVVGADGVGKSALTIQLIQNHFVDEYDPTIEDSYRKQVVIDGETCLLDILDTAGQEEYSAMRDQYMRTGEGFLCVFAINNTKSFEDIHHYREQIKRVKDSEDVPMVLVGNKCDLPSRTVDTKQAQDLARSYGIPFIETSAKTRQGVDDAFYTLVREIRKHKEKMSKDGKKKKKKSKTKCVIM

SMILES | IC50 [1] [µM] | Avg 2 h Coupled Exchange IC50 [2] [µM]
Nc1nc2c(-c3c(F)cc4c(N5C[C@H]6CC[C@@H](C5)N6)nc(OC[C@@]56CCCN5C[C@H](F)C6)nc4c3F)ccc(F)c2s1 [Example 141, 4-(4-((1R,5S)-3,8-diazabicyclo [3.2.1]octan-3-yl)-6,8-difluoro-2-(((2R,7aS)-2-fluorotetrahydro-1H-pyrrolizin-7a(5H)-yl)methoxy)quinazolin-7-yl)-7-fluorobenzo[d]thiazol-2-amine] | 0.002 | 0.002
Nc1nc2c(-c3c(Cl)cc4c(N5CCNCC5)nc(OC[C@@H]5C[C@H](F)CN5)nc4c3F)cccc2s1 [Example 55, 4-(6-chloro-8-fluoro-2-(((2S,4S)-4-fluoro-pyrrolidin-2-yl)methoxy)-4-(piperazin-1-yl)quinazolin-7-yl)benzo[d] thiazol-2-amine] | 0.285 | 0.106
CN1CCC[C@H]1COc1nc(N2CCN[C@@H](CO)C2)c2cc(Cl)c(-c3cccc4sc(N)nc34)c(F)c2n1 [Example 25, ((2R)-4-(7-(2-aminobenzo[d]thiazol-4-yl)-6-chloro-8-fluoro-2-(((S)-1-methylpyrrolidin-2-yl)methoxy)quinazolin-4-yl)piperazin-2-yl)methanol] | 0.239 | 0.181
CN1CCC[C@H]1COc1nc(N2CCCNCC2)c2cc(Cl)c(-c3cccc4sc(N)nc34)c(F)c2n1 [Example 17, 4-(6-chloro-4-(1,4-diazepan-1-yl)-8-fluoro-2-(((S)-1-methylpyrrolidin-2-yl)methoxy)quinazolin-7-yl)benzo[d] thiazol-2-amine] | 0.135 | 0.03
Nc1nc2c(-c3c(Cl)cc4c(N5CCNC(=O)CC5)nc(OCC56CCCN5CCC6)nc4c3F)ccc(F)c2s1 [Example 13, 1-(7-(2-amino-7-fluorobenzo [d]thiazol-4-yl)-6-chloro-8-fluoro-2-((tetrahydro-1H-pyrrolizin-7a(5H)-yl)methoxy)quinazolin-4-yl)-1,4-diazepan-5-one] | 0.022 | 0.014
Nc1nc2c(-c3c(Cl)cc4c(N5CCNCC5)nc(OCC56CCCN5C(=O)CC6)nc4c3F)cccc2s1 (stereo not drawn) [Example 43, 7a-(((7-(2-aminobenzo[d]thiazol-4-yl)-6-chloro-8-fluoro-4-(piperazin-1-yl)quinazolin-2-yl)oxy)methyl)hexahydro-3H-pyrrolizin-3-one] | 3.19 | 3.29
CN1CCCC[C@H]1COc1nc(N2CCNCC2)c2cc(Cl)c(-c3cccc4sc(N)nc34)c(F)c2n1 [Example 64, 4-(6-chloro-8-fluoro-2-(((S)-1-methyl-piperidin-2-yl)methoxy)-4-(piperazin-1-yl)quinazolin-7-yl)benzo[d] thiazol-2-amine] | 1.19 | 0.446
Nc1nc2c(-c3ccc4c(N5C[C@H]6CC[C@@H](C5)N6)nc(OC[C@@]56CCCN5C[C@H](F)C6)nc4c3F)ccc(F)c2s1 [Example 140, 4-(4-((1R,5S)-3,8-diazabicyclo[3.2.1]octan-3-yl)-8-fluoro-2-(((2R,7aS)-2-fluorotetrahydro-1H-pyrrolizin-7a(5H)-yl)methoxy)quinazolin-7-yl)-7-fluorobenzo[d]thiazol-2-amine] | 0.012 | 0.003
CN1CCC[C@H]1COc1nc(N2CCNC(=O)CC2)c2cc(Cl)c(-c3cccc4sc(N)nc34)c(F)c2n1 [Example 24, 1-(7-(2-aminobenzo[d]thiazol-4-yl)-6-chloro-8-fluoro-2-(((S)-1-methylpyrrolidin-2-yl)methoxy)quinazolin-4-yl)-1,4-diazepan-5-one] | 0.158 | 0.172
CC(=O)N1CCC[C@H]1COc1nc(N2CCNCC2)c2cc(Cl)c(-c3cccc4sc(N)nc34)c(F)c2n1 [Example 71, 1-((2S)-2-(((7-(2-aminobenzo[d]thiazol-4-yl)-6-chloro-8-fluoro-4-(piperazin-1-yl)quinazolin-2-yl)oxy)methyl)pyrrolidin-1-yl)ethan-1-one] | 3.98 | 2.53
CN1CCC[C@H]1COc1nc(N2CCNC[C@@H]2CO)c2cc(Cl)c(-c3cccc4sc(N)nc34)c(F)c2n1 [Example 37, ((2R)-1-(7-(2-aminobenzo[d]thiazol-4-yl)-6-chloro-8-fluoro-2-(((S)-1-methylpyrrolidin-2-yl)methoxy)quinazolin-4-yl)piperazin-2-yl)methanol] | 1.97 | 0.388
Nc1nc2c(-c3c(Cl)cc4c(N5CCNCC5)nc(OC[C@@H]5CC(F)(F)CN5)nc4c3F)cccc2s1 [Example 59, 4-(6-chloro-2-(((S)-4,4-difluoro-pyrrolidin-2-yl)methoxy)-8-fluoro-4-(piperazin-1-yl)quinazolin-7-yl)benzo[d] thiazol-2-amine] | 0.687 | 0.321
Nc1nc2c(-c3c(Cl)cc4c(N5CCNCC5)nc(OC[C@@H]5CCC(=O)N5)nc4c3F)cccc2s1 [Example 68, (5S)-5-(((7-(2-aminobenzo[d]thiazol-4-yl)-6-chloro-8-fluoro-4-(piperazin-1-yl)quinazolin-2-yl)oxy)methyl) pyrrolidin-2-one] | 0.829 | 0.718
Nc1nc2c(-c3c(Cl)cc4c(N5CCNCC5)nc(OC[C@@H]5CCCN5CC(F)F)nc4c3F)cccc2s1 [Example 66, 4-(6-chloro-2-(((S)-1-(2,2-difluoroethyl)pyrrolidin-2-yl)methoxy)-8-fluoro-4-(piperazin-1-yl)quinazolin-7-yl)benzo[d] thiazol-2-amine] | 1.62 | 0.549
CN1CCC[C@H]1COc1nc(N2CCN[C@@H](CC#N)C2)c2cc(Cl)c(-c3cccc4sc(N)nc34)c(F)c2n1 [Example 26, 2-((2S)-4-(7-(2-aminobenzo[d]thiazol-4-yl)-6-chloro-8-fluoro-2-(((S)-1-methylpyrrolidin-2-yl)methoxy)quinazolin-4-yl)piperazin-2-yl)acetonitrile] | 1.21 | 0.409
